Converted amounts (≈) assume the structure as drawn. Like-named read-outs stand apart in the source and are kept apart here.
Assays:
[1] = tested on: Pseudomonas aeruginosa A-5007; assay: Minimal Inhibitory Concentrations against common test organisms; assay type: cell-based; details: A5007
[2] = tested on: Streptococcus pyogenes 930; assay: as above; assay type: cell-based
[3] = tested on: Staphylococcus aureus ATCC 6538; assay: as above; assay type: cell-based
[4] = tested on: Staphylococcus epidermidis 3519; assay: as above; assay type: cell-based
Micrococcus luteus 9341 = assay: as above; assay type: cell-based
Esherichia coli Juhl = assay: as above; assay type: cell-based
[5] = tested on: Streptococcus faecium ATCC 8043; assay: as above; assay type: cell-based; details: Enterococcus faecium, ATCC8043
solubility = assay type: physicochemical
Micrococcus luteus 4698 = assay: Minimal Inhibitory Concentrations against common test organisms; assay type: cell-based
Bacteroides fragilis 784 = assay: as above; assay type: cell-based
Gram-positive bacteria = assay: antibiotic activity against Gram-positive bacteria in vitro; assay type: cell-based; details: including strains resistant to currently used therapeutic antibiotics
[6] = tested on: Candida albicans ATCC 10231; assay: Minimal Inhibitory Concentrations against common test organisms; assay type: cell-based; details: ATCC10231
[7] = tested on: Propionibacterium acnes 132; assay: as above; assay type: cell-based; details: Cutibacterium acnes
[8] = ATCC6538, Staphylococcus aureus ATCC 6538, read-out: Minimal Inhibitory Concentrations

| SMILES | MIC [1] [µg/mL] | MIC [2] [µg/mL] | MIC [3, 8] [µg/mL] | MIC [4] [µg/mL] | MIC (Micrococcus luteus 9341) [µg/mL] | MIC (Esherichia coli Juhl) [µg/mL] | MIC [5] [µg/mL] | solubility in acetonitrile (solubility) | solubility in benzene (solubility) | solubility in chloroform (solubility) | solubility in ether (solubility) | solubility in hexane (solubility) | solubility in methanol (solubility) | solubility in water (solubility) | antibiotic activity against a number of Gram-positive bacteria (Gram-positive bacteria) | MIC [6] [µg/mL] | also measured |
| --- | --- | --- | --- | --- | --- | --- | --- | --- | --- | --- | --- | --- | --- | --- | --- | --- | --- |
| CCC1CC=C(C)C=C(C)C(OC2OC(C)(C)C(OC(C)=O)C(O)C2O)C(CC)C=C(C)C(O)CC=CC=C(C)C(=O)O1 (centres unmarked) [Tiacumicin A] | – | 100 (≈ 165 µM) | 100 (≈ 165 µM) | 100 (≈ 165 µM) | 0.1 (≈ 0.165 µM) | – | – | sparingly soluble | readily soluble | readily soluble | – | – | readily soluble | insoluble | – | – | MIC (Micrococcus luteus 4698): 0.39 µg/mL (≈ 0.645 µM); solubility in acetone (solubility; acetone): sparingly soluble |
| CCc1c(Cl)c(O)c(Cl)c(O)c1C(=O)OC1C(C)OC(OCC2=CC=CCC(O)C(C)=CC(CC)C(OC3OC(C)(C)C(OC(=O)C(C)C)C(O)C3O)C(C)=CC(C)=CCC(C(C)O)OC2=O)C(OC)C1O (centres unmarked) [Tiacumicin B] | > 100 | 12.5 (≈ 11.8 µM) | – | 12.5 (≈ 11.8 µM) | 0.1 (≈ 0.0945 µM) | > 100 | 12.5 (≈ 11.8 µM) | readily soluble | sparingly soluble | sparingly soluble | sparingly soluble | insoluble | readily soluble | insoluble | possessed antibiotic activity | > 100 | MIC (Bacteroides fragilis 784): > 100 µg/mL; MIC ([3]; Staphylococcus aureus, ATCC6538, read-out: Minimal Inhibitory Concentrations): 12.5 µg/mL (≈ 11.8 µM); MIC [7]: 6.25 µg/mL (≈ 5.91 µM) |
| CCc1c(Cl)c(O)c(Cl)c(O)c1C(=O)OC1C(C)OC(OCC2=CC=CCC(O)C(C)=CC(CC)C(OC3OC(C)(C)C(O)C(O)C3OC(=O)C(C)C)C(C)=CC(C)=CCC(C(C)O)OC2=O)C(OC)C1O (centres unmarked) [Tiacumicin C] | > 100 | 25 (≈ 23.6 µM) | 50 (≈ 47.3 µM) | 25 (≈ 23.6 µM) | ≤ 0.39 | > 100 | 100 (≈ 94.5 µM) | readily soluble | sparingly soluble | sparingly soluble | sparingly soluble | insoluble | readily soluble | insoluble | possessed antibiotic activity | > 100 | – |

The next lines start with results.

| MIC [1] [µg/mL] | MIC [2] [µg/mL] | MIC [3, 8] [µg/mL] | MIC [4] [µg/mL] | MIC (Micrococcus luteus 9341) [µg/mL] | MIC (Esherichia coli Juhl) [µg/mL] | MIC [5] [µg/mL] | solubility in acetonitrile (solubility) | solubility in benzene (solubility) | solubility in chloroform (solubility) | solubility in ether (solubility) | solubility in hexane (solubility) | solubility in methanol (solubility) | solubility in water (solubility) | SMILES | antibiotic activity against a number of Gram-positive bacteria (Gram-positive bacteria) | MIC [6] [µg/mL] | also measured |
| --- | --- | --- | --- | --- | --- | --- | --- | --- | --- | --- | --- | --- | --- | --- | --- | --- | --- |
| > 25 | > 25 | > 25 | > 25 | 0.2 (≈ 0.189 µM) | > 25 | > 25 | readily soluble | sparingly soluble | sparingly soluble | sparingly soluble | insoluble | readily soluble | insoluble | CCc1c(Cl)c(O)c(Cl)c(O)c1C(=O)OC1C(O)C(C)OC(OCC2=CC=CCC(O)C(C)=CC(CC)C(OC3OC(C)(C)C(O)C(O)C3OC(=O)C(C)C)C(C)=CC(C)=CCC(C(C)O)OC2=O)C1OC (centres unmarked) [Tiacumicin D] | – | – | – |
| > 100 | 12.5 (≈ 11.8 µM) | 12.5 (≈ 11.8 µM) | 12.5 (≈ 11.8 µM) | 6.2 (≈ 5.86 µM) | > 100 | 6.2 (≈ 5.86 µM) | readily soluble | sparingly soluble | sparingly soluble | sparingly soluble | insoluble | readily soluble | insoluble | CCc1c(Cl)c(O)c(Cl)c(O)c1C(=O)OC1C(C)OC(OCC2=CC=CCC(O)C(C)=CC(CC)C(OC3OC(C)(C)C(O)C(OC(=O)C(C)C)C3O)C(C)=CC(C)=CCC(C(C)O)OC2=O)C(OC)C1O (centres unmarked) [Tiacumicin F] | – | – | – |
| > 100 | 50 (≈ 47.9 µM) | 2.5 (≈ 2.39 µM) | 12.5 (≈ 12 µM) | – | > 100 | 12.5 (≈ 12 µM) | readily soluble | sparingly soluble | sparingly soluble | sparingly soluble | insoluble | readily soluble | insoluble | CCC(=O)OC1C(OC2C(C)=CC(C)=CCC(C(C)O)OC(=O)C(COC3OC(C)C(OC(=O)c4c(O)c(Cl)c(O)c(Cl)c4CC)C(O)C3OC)=CC=CCC(O)C(C)=CC2CC)OC(C)(C)C(O)C1O (centres unmarked) [Tiacumicin E] | – | – | – |

From patent publication US4918174A, “Tiacumicin compounds” (Abbott Laboratories, priority 1986, dated 1990)
